Measured values taken from paper PMC5086919, “Antileukemic Scalarane Sesterterpenoids and Meroditerpenoid from Carteriospongia (Phyllospongia) sp., Induce Apoptosis via Dual Inhibitory Effects on Topoisomerase II and Hsp90” (Scientific Reports, 2016).

System: Hsp90 client proteins in Molt 4 cells
Experiment: Western blot of Hsp90, Hsp70, HSF 1 and Hsp90 client proteins
Format: cell-based, human
Conditions: 0.0625 μg/mL, different time intervals
Description: It was also reported that the induction of Hsp70 is the biomarker of Hsp90 with N-terminal inhibition. Aiming to understand the relation between Hsp90 function and the expression of Hsp70 and 90 clients, we treated Molt 4 cells with 1 (0.0625 μg/mL) for different time intervals. […] The majority of Hsps accumulate in subcellular localizations that determine whether a cell is going to die or differentiate. Erythroblasts with accumulated nuclear Hsp70 continued their differentiation process during the formation of red blood cells. Furthermore, we identified the localization of Hsp70 in response to 1 treatment using immunofluorescence by confocal microscope.
Cell lysates were prepared by treating the cells for 30 min in RIPA lysis buffer, 1% Nonidet P-40, 0.5% sodium deoxycholate, 0.1% sodium dodecyl sulphate (SDS), 1 mM sodium orthovanadate, 100 μg/mL phenylmethylsulfonyl fluoride and 30 μg/mL aprotinin) (all chemicals were from Sigma)[38]. The lysates were centrifuged at 20,000 × g for 30 min, and the protein concentration in the supernatant was determined using a BCA protein assay kit (Pierce). Equal amounts of proteins were respectively separated by 7.5%, 10% or 12% of SDS-polyacrylamide gel electrophoresis and then were electrotransferred to a PVDF membrane. The membrane was blocked with a solution containing 5% non-fat dry milk TBST buffer (20 mM Tris-HCl, pH 7.4, 150 mM NaCl and 0.1% Tween 20) for 1 h and washed with TBST buffer. The protein expressions were monitored by immunoblotting using specific antibodies. These proteins were detected by an enhanced chemiluminescence kit (Pierce).

## CC[C@@]1(C)CCC[C@]2(C)[C@H]3C[C@@H](OC(=O)C[C@@H](C)O)[C@]4(C)[C@@H](C=O)C(C(C)=O)=CC[C@H]4[C@]3(C)CC[C@@H]12 (relative stereo) [Compound 1, 12β-(3′β-hydroxybutanoyloxy)-20,24-dimethyl-24-oxo-scalara-16-en-25-al]
  expression of HSF 1 protein: attenuated
  expression of Hsp70: increased in a time-dependent manner
  expression of Hsp90 client proteins (p70S6k, NFκB, Raf-1, p-GSK3β, MEK 1, XIAP, MDM 2, Rb2, CDK4, HIF 1, HSF1): suppression of Hsp90 client proteins was observed
  expression of Hsp90 protein: did not notably attenuate the expression of Hsp90 protein
